ChEMBL document CHEMBL2331345, “Syntheses of lipophilic chalcones and their conformationally restricted analogues as antitubercular agents” (Bioorg Med Chem Lett, 2013)
≈ marks a conversion by molar mass, not a printed value. Calls of active or inactive are those of the source. The rule behind the calls is not given here.

How the values were obtained:
[1] = tested on: Mycobacterium tuberculosis; experiment: Antitubercular activity against Mycobacterium tuberculosis assessed as growth inhibition; format: functional
[2] = tested on: Mycobacterium tuberculosis; experiment: Antitubercular activity against Mycobacterium tuberculosis H37Rv ATCC 27294 assessed as growth inhibition at 250 ug/ml measured every 24 hrs by BACTEC radiosusceptibility assay; format: functional, organism-based
HEK293 = experiment: Cytotoxicity against human HEK293 cells assessed as inhibition of cell viability after 24 hrs by MTT assay; format: cell-based; conditions: HEK293, 24 h
[3] = tested on: Mycobacterium tuberculosis; experiment: Antitubercular activity against Mycobacterium tuberculosis H37Rv ATCC 27294 assessed as growth inhibition measured every 24 hrs by BACTEC radiosusceptibility assay; format: functional; conditions: H37Rv ATCC 27294, 24 h
[4] = Selectivity ratio of IC50 for human HEK293 cells to MIC for Mycobacterium tuberculosis H37Rv ATCC 27294; format: functional
Mycobacterium sp. = experiment: Antibacterial activity against Mycobacterium sp. assessed as growth inhibition; format: functional

C=CC(C)(C)c1cc(/C=C/C(=O)c2ccc(O)cc2)c(OC)cc1O [LICOAGROCHACONE A]
MIC [1]: 7.1 µg/mL (≈ 21 µM)

CCCCNC(=O)COc1ccc(/C=C(/C(=O)c2ccc(OC)cc2)c2ccccc2)cc1
growth inhibition (GI) [2]: inactive

COc1ccc2c(/C=C/c3ccc(OC(C)CN(C)C)cc3)c(-c3ccccc3)c(=O)oc2c1 (stereo not drawn)
IC50 (HEK293): 5 µg/mL (≈ 11 µM) | MIC [3]: 7.5 µg/mL (≈ 16.5 µM)

COc1ccc(C(=O)/C=C/c2ccc(O)cc2)c(O)c1
growth inhibition (GI) [2]: inactive

COc1ccc(C(=O)/C(=C/c2ccc(O)cc2)c2ccccc2)cc1
IC50 (HEK293): 50 µg/mL (≈ 151 µM) | MIC [3]: 60 µg/mL (≈ 182 µM)

CC(C)=CCOc1c2ccoc2cc2oc(=O)ccc12 [ISOIMPERATORIN]
MIC [1]: 64 µg/mL (≈ 237 µM)

COc1ccc2ccc(=O)oc2c1CC=C(C)C [OSTHOLE]
MIC [1]: 32 µg/mL (≈ 131 µM)

COc1cc2oc(=O)ccc2cc1CC=C(C)C [SUBEROSIN]
MIC [1]: 16 µg/mL (≈ 65.5 µM)

COc1ccc2c(/C=C/c3ccc(O)cc3)c(-c3ccccc3)c(=O)oc2c1
IC50 (HEK293): > 250 µg/mL | Ratio [4]: 16 | MIC [3]: 30 µg/mL (≈ 81 µM)

CN[C@@H]1[C@H](O[C@H]2[C@H](O[C@H]3[C@H](O)[C@@H](O)[C@H](N=C(N)N)[C@@H](O)[C@@H]3N=C(N)N)O[C@@H](C)[C@]2(O)C=O)O[C@@H](CO)[C@H](O)[C@H]1O [STREPTOMYCIN]
MIC [3]: 2 µg/mL (≈ 3.44 µM)

COc1ccc(/C=C/C(=O)c2ccc(O)cc2O)cc1
growth inhibition (GI) [2]: inactive

CO[C@H]1/C=C/O[C@@]2(C)Oc3c(C)c(O)c4c(O)c(c(/C=N/N5CCN(C)CC5)c(O)c4c3C2=O)NC(=O)/C(C)=C\C=C\[C@H](C)[C@H](O)[C@@H](C)[C@@H](O)[C@@H](C)[C@H](OC(C)=O)[C@@H]1C [RIFAMPIN]
MIC [3]: 2 µg/mL (≈ 2.43 µM)

COc1ccc(C(=O)/C(=C/c2ccc(OCC(=O)O)cc2)c2ccccc2)cc1
MIC [3]: 250 µg/mL (≈ 644 µM)

COc1ccc2c(/C=C/c3ccc(OCCN4CCCCC4)cc3)c(-c3ccccc3)c(=O)oc2c1
IC50 (HEK293): 5 µg/mL (≈ 10.4 µM) | Ratio [4]: 2.85 | MIC [3]: 3.5 µg/mL (≈ 7.27 µM)

CC(C)=CCC/C(C)=C/CC/C(C)=C/Cc1c(O)c2ccccc2oc1=O
MIC (Mycobacterium sp.): 2 µg/mL (≈ 5.46 µM)

COc1ccc2c(/C=C/c3ccc(OC(C)=O)cc3)c(-c3ccccc3)c(=O)oc2c1
growth inhibition (GI) [2]: inactive

CCCCN(C)C(=O)COc1ccc(/C=C(/C(=O)c2ccc(OC)cc2)c2ccccc2)cc1
growth inhibition (GI) [2]: inactive

COc1cc(CCc2ccc3c(c2)OCO3)oc(=O)c1
MIC [1]: 32 µg/mL (≈ 117 µM)

COc1cc(/C=C/c2ccccc2)oc(=O)c1 [DESMETHOXYYANGONIN]
MIC [1]: 4 µg/mL (≈ 17.5 µM)

COc1ccc(/C=C/c2c(-c3ccccc3)c(=O)oc3cc(O)ccc23)cc1
IC50 (HEK293): > 250 µg/mL | MIC [3]: 125 µg/mL (≈ 337 µM)

COc1ccc2c(/C=C/c3ccc(OCCN4CCCC4)cc3)c(-c3ccccc3)c(=O)oc2c1
growth inhibition (GI) [2]: inactive
